Measurements: PubChem BioAssay AID1919008 (Molecular Pharmacology Branch, DTP, NCI, 2023)

System: DMS-114 complex spheroids with HUVEC/MSC, growth % test/control
Test: Anticancer human tumor DMS-114 cell line growth inhibition [AhR];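 note: spheroids exposed to agents for 7 days before readout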;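 for viability, T/C: 100% = DMSO vehicle control wells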
Conditions: for IC50: curve of first compound; for viability, T/C: stronger effect = lower value
Procedure, shortened: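 Spheroids combined tumor cells with HUVEC endothelial cells and human MSCs as stroma. AhR antagonists were paired with standard or investigational drugs, each dosed in half-log steps down from near clinical Cmax, or from 10 microM where Cmax was unknown.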

[1] = second compound 0.1 µM, first compound 0.0316 µM
[2] = second compound 0.1 µM, first compound 0.1 µM
[3] = second compound 0.1 µM, first compound 0.316 µM
[4] = second compound 0.1 µM, first compound 1 µM
[5] = second compound 0.1 µM, first compound 3.16 µM
[6] = second compound 0.1 µM, first compound 10 µM
[7] = second compound 0.316 µM, first compound 0.0316 µM
[8] = second compound 0.316 µM, first compound 0.1 µM
[9] = second compound 0.316 µM, first compound 0.316 µM
[10] = second compound 0.316 µM, first compound 1 µM
[11] = second compound 0.316 µM, first compound 3.16 µM
[12] = second compound 0.316 µM, first compound 10 µM
[13] = second compound 1 µM, first compound 0.0316 µM
[14] = second compound 1 µM, first compound 0.1 µM
[15] = second compound 1 µM, first compound 0.316 µM
[16] = second compound 1 µM, first compound 1 µM
[17] = second compound 1 µM, first compound 3.16 µM
[18] = second compound 1 µM, first compound 10 µM
[19] = second compound 3.16 µM, first compound 0.0316 µM
[20] = second compound 3.16 µM, first compound 0.1 µM
[21] = second compound 3.16 µM, first compound 0.316 µM
[22] = second compound 3.16 µM, first compound 1 µM
[23] = second compound 3.16 µM, first compound 3.16 µM
[24] = second compound 3.16 µM, first compound 10 µM
[25] = second compound 10 µM, first compound 0.0316 µM
[26] = second compound 10 µM, first compound 0.1 µM
[27] = second compound 10 µM, first compound 0.316 µM
[28] = second compound 10 µM, first compound 1 µM
[29] = second compound 10 µM, first compound 3.16 µM
[30] = second compound 10 µM, first compound 10 µM

Compound | IC50 (second compound 0.1 µM) | IC50 (second compound 0.316 µM) | IC50 (second compound 1 µM) | IC50 (second compound 3.16 µM) | IC50 (second compound 10 µM) | viability, T/C [1] | viability, T/C [2] | viability, T/C [3] | viability, T/C [4] | viability, T/C [7] | viability, T/C [8] | viability, T/C [9] | viability, T/C [10] | viability, T/C [13] | viability, T/C [14] | viability, T/C [15] | viability, T/C [16] | viability, T/C [19] | viability, T/C [20] | viability, T/C [21] | also measured
CC(C)c1c(-c2ccccc2)nc2c(C#N)c[nH]n2c1=O + CC(CO)NC(=O)c1cc(-c2ccc(Cl)cc2)nn(-c2cnn(C)c2)c1=O | > 10000 nM | > 10000 nM | > 10000 nM | > 10000 nM | > 10000 nM | 93.8% | 95.8% | 93.8% | 95.7% | 96.8% | 98.5% | 101% | 98.9% | 93.7% | 100% | 89.6% | 97.7% | 103% | 96.6% | 95.1% | viability, T/C [5]: 113%; viability, T/C [6]: 108%; viability, T/C [11]: 110%; viability, T/C [12]: 113%; viability, T/C [17]: 97.3%; viability, T/C [18]: 103%; viability, T/C [22]: 94.6%; viability, T/C [23]: 92.3%; viability, T/C [24]: 105%; viability, T/C [25]: 103%; viability, T/C [26]: 105%; viability, T/C [27]: 96.1%; viability, T/C [28]: 104%; viability, T/C [29]: 99.5%; viability, T/C [30]: 113%
COc1cc(C2c3cc4c(cc3C(OC3OC5COC(C)OC5C(O)C3O)C3COC(=O)C23)OCO4)cc(OC)c1O (stereo not given) + Cc1ccccc1N=Nc1ccc(NC(=O)c2ccnn2C)c(C)c1 | 1740 nM | 1760 nM | 1470 nM | 1650 nM | 1750 nM | 99.4% | 99.1% | 93.4% | 59.7% | 105% | 100% | 84.4% | 56.9% | 97.7% | 92.4% | 84.4% | 52.2% | 100% | 96.4% | 81.7% | viability, T/C [5]: 40.4%; viability, T/C [6]: 26.5%; viability, T/C [11]: 43%; viability, T/C [12]: 25.5%; viability, T/C [17]: 43.6%; viability, T/C [18]: 29.6%; viability, T/C [22]: 59.4%; viability, T/C [23]: 37.9%; viability, T/C [24]: 26.4%; viability, T/C [25]: 90.7%; viability, T/C [26]: 92.5%; viability, T/C [27]: 82.7%; viability, T/C [28]: 57.6%; viability, T/C [29]: 42.2%; viability, T/C [30]: 27.7%
COc1cccc2c1C(=O)c1c(O)c3c(c(O)c1C2=O)CC(O)(C(=O)CO)CC3OC1CC(N)C(O)C(C)O1 (stereo not given) + Cc1ccccc1N=Nc1ccc(NC(=O)c2ccnn2C)c(C)c1 | 81.6 nM | 110 nM | 107 nM | 104 nM | 98.4 nM | 71.6% | 44.9% | 17.1% | 1.65% | 75.5% | 52.5% | 19.4% | 1.84% | 71.4% | 51.8% | 18.3% | 2.28% | 71% | 50.7% | 19.3% | viability, T/C [5]: 0.32%; viability, T/C [6]: 0.78%; viability, T/C [11]: 0.33%; viability, T/C [12]: 1.22%; viability, T/C [17]: 0.52%; viability, T/C [18]: 0.56%; viability, T/C [22]: 1.97%; viability, T/C [23]: 0.59%; viability, T/C [24]: 0.61%; viability, T/C [25]: 68.7%; viability, T/C [26]: 48.8%; viability, T/C [27]: 21.6%; viability, T/C [28]: 1.61%; viability, T/C [29]: 0.52%; viability, T/C [30]: 0.7%
Nc1ncn(C2CC(O)C(CO)O2)c(=O)n1 (stereo not given) + Cc1ccccc1N=Nc1ccc(NC(=O)c2ccnn2C)c(C)c1 | > 1000 nM | > 1000 nM | > 1000 nM | > 1000 nM | > 1000 nM | 103% | 117% | 104% | 105% | 104% | 113% | 96.3% | 104% | 108% | 101% | 95.4% | 106% | 95.7% | 99.8% | 99.7% | viability, T/C (second compound 0.1 µM, first compound 0.00316 µM): 111%; viability, T/C (second compound 0.1 µM, first compound 0.01 µM): 105%; viability, T/C (second compound 0.316 µM, first compound 0.00316 µM): 103%; viability, T/C (second compound 0.316 µM, first compound 0.01 µM): 95.4%; viability, T/C (second compound 1 µM, first compound 0.00316 µM): 109%; viability, T/C (second compound 1 µM, first compound 0.01 µM): 104%; viability, T/C (second compound 3.16 µM, first compound 0.00316 µM): 115%; viability, T/C (second compound 3.16 µM, first compound 0.01 µM): 96.2%; viability, T/C [22]: 97.7%; viability, T/C (second compound 10 µM, first compound 0.00316 µM): 98.8%; viability, T/C (second compound 10 µM, first compound 0.01 µM): 98.1%; viability, T/C [25]: 92.1%; viability, T/C [26]: 91%; viability, T/C [27]: 105%; viability, T/C [28]: 87.6%
